Legend:
Assay in all cases: Off-chip Mobility Shift Assay (MSA) kinase inhibition
Assay type in all cases: biochemical
FLT4 = biological target: T1, FLT4 (Homo sapiens, UniProt P35916); settings: inhibitor concentration 1 μM
T1 construct: purchased Carna Biosciences
Description: (§1) Off-chip Mobility Shift Assay (MSA) by Cama Biosciences, Inc (Natick, Mass.) a used for measuring the kinase activity and inhibition. • 1) The 5 μL of x4 compound solution, 5 μL of x4 Substrate/ATP/Metal solution, and 10 μL of x2 kinase solution were prepared with assay buffer (20 mM HEPES, 0.01% Triton X100, 2 mM DTT, pH 7.5) and mixed and incubated in a well of polypropylene 384 well microplate for 1 or 5 hour(s)* at room temperature. (*; depending on kinase) • 2) 70 μL of Termination Buffer (QuickScout Screening Assist A; Cama Biosciences) was added to the welt • 3) The reaction mixture was applied to LabChip system (Perkin Elmer), and the product and substrate peptide peaks were separated and quantitated. • 4) The kinase reaction was evaluated by the product ratio calculated from peak heights of product (P) and substrate (S) peptides (P/(P+S)). • 5) The reaction conditions were followed according to assay protocols of Ca n Biosciences, Inc (BMA 3F, 1-5-5 Minatojima-Minamimachi, Chuo-ku, Kobe 650-0047, Japan; www.carnabio.com). • 6 Data analysis: The readout value of reaction control (complete reaction mixture) was set as a 0% inhibition, and the readout value of background (Enzyme (−)) was set as a 100% inhibition, then the percent inhibition of each test solution was calculated, […]

FYN(isoform b) = biological target: T2, FYN(isoform b) (Homo sapiens, UniProt P06241)
T2 construct: purchased Carna Biosciences
Description: as §1

KIT(D816E) = biological target: T3, KIT(D816E) (Homo sapiens, UniProt P10721, D816E); settings: inhibitor concentration 1 μM
T3 construct: purchased Carna Biosciences
Description: as §1

KIT(V654A) = biological target: T4, KIT(V654A) (Homo sapiens, UniProt P10721, V654A); settings: inhibitor concentration 1 μM
T4 construct: purchased Carna Biosciences
Description: as §1

MAP2K5 = biological target: T5, MAP2K5 (Homo sapiens, UniProt Q13163); settings: inhibitor concentration 1 μM
T5 construct: purchased Carna Biosciences
Description: as §1

MST1 = biological target: T6, MST1 (Homo sapiens, UniProt Q13043)
T6 construct: purchased Carna Biosciences
T6 sequence (Q13043 1-487): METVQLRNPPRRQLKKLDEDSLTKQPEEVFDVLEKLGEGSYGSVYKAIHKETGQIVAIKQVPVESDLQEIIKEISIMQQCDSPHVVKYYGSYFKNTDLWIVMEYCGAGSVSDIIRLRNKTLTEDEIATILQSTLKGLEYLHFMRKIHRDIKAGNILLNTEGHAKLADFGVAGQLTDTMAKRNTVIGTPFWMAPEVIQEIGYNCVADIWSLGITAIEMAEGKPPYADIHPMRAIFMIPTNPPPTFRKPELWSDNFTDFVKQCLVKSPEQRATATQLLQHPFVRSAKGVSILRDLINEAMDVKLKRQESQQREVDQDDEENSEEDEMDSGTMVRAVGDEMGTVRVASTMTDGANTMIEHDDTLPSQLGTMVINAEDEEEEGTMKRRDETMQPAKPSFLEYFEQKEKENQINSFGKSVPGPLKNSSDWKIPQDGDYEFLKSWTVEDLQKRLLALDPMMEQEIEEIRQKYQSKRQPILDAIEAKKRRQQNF
Description: as §1

MST2 = biological target: T7, MST2 (Homo sapiens, UniProt Q13188)
T7 construct: purchased Carna Biosciences
T7 sequence (Q13188 1-491): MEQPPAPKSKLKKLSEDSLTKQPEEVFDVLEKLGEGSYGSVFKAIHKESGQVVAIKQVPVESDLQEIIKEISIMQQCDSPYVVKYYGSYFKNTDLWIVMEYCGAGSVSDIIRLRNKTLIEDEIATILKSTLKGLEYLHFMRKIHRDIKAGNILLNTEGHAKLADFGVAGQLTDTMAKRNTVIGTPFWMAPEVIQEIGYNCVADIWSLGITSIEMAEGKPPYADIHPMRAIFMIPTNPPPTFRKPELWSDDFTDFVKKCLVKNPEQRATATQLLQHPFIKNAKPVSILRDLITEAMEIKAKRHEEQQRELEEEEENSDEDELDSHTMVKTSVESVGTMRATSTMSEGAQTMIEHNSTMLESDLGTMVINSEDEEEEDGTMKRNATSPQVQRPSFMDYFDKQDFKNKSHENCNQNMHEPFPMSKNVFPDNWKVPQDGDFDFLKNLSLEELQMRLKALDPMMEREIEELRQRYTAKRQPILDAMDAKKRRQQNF
Description: as §1

MST3 = biological target: T8, MST3 (Homo sapiens, UniProt Q9Y6E0); settings: inhibitor concentration 1 μM
T8 construct: purchased Carna Biosciences
Description: as §1

PKD1 = biological target: T9, PKD1 (Homo sapiens, UniProt Q15139); settings: inhibitor concentration 1 μM
T9 construct: purchased Carna Biosciences
Description: as §1

RET(G691S) = biological target: T10, RET(G691S) (Homo sapiens, UniProt P07949, G691S)
T10 construct: purchased Carna Biosciences
Description: as §1

RET(M918T) = biological target: T11, RET(M918T) (Homo sapiens, UniProt P07949, M918T)
T11 construct: purchased Carna Biosciences
Description: as §1

RET(Y791F) = biological target: T12, RET(Y791F) (Homo sapiens, UniProt P07949, Y791F)
T12 construct: purchased Carna Biosciences
Description: as §1

ROCK1 = biological target: T13, ROCK1 (Homo sapiens, UniProt Q13464); settings: inhibitor concentration 1 μM
T13 construct: purchased Carna Biosciences
Description: as §1

YES = biological target: T14, YES (Homo sapiens, UniProt P07947)
T14 construct: purchased Carna Biosciences
Description: as §1

p38β = biological target: T15, p38β (Homo sapiens, UniProt Q15759); settings: inhibitor concentration 1 μM
T15 construct: purchased Carna Biosciences
Description: as §1

skMLCK = biological target: T16, skMLCK (Homo sapiens, UniProt Q9H1R3); settings: inhibitor concentration 1 μM
T16 construct: purchased Carna Biosciences
Description: as §1

[1] = inhibitor concentration 0.01 μM

T12 sequence (P07949 29-1114 Y791F): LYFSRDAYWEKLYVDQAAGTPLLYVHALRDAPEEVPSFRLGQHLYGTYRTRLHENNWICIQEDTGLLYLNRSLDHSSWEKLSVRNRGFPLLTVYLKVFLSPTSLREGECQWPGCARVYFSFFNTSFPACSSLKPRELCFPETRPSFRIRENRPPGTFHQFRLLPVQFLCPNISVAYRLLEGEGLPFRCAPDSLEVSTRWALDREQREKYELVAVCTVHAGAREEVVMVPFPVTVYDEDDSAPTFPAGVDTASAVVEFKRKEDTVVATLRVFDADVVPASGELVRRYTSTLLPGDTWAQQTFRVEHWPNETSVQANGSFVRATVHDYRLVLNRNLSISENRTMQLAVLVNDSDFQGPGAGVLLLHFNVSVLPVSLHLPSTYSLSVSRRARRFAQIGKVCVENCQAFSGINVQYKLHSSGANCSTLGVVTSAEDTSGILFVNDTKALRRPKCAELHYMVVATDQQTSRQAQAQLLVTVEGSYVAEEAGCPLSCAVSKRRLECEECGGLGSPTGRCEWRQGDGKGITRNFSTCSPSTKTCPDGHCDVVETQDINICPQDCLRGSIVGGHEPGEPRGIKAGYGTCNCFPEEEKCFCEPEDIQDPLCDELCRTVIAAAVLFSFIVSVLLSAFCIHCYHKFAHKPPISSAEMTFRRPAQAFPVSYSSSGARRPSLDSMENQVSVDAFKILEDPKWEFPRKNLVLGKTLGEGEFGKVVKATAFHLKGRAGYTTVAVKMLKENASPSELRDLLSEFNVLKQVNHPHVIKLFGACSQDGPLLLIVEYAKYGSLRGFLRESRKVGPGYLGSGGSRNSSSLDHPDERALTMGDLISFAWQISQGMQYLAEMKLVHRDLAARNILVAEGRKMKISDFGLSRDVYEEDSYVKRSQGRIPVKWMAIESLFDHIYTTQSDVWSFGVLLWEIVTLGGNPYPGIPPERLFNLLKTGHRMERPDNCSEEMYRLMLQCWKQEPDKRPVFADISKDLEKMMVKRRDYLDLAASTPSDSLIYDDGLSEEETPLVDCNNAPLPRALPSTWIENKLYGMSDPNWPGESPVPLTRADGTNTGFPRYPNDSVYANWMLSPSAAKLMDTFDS
T2 sequence (P06241 1-534 isoform P06241-2): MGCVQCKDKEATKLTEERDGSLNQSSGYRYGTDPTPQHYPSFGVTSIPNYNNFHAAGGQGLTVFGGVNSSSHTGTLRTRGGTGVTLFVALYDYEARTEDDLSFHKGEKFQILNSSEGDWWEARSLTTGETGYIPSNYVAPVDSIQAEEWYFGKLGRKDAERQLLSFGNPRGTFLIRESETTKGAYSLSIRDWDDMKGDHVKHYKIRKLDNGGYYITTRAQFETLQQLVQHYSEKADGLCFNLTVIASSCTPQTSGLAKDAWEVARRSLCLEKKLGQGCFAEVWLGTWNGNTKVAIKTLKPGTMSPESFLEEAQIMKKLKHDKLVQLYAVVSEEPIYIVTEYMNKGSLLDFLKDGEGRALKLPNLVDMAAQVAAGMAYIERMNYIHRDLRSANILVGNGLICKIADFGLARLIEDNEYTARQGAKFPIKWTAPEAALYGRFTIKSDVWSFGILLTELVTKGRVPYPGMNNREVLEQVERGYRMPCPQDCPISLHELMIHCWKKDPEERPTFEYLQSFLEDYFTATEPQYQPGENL
T14 sequence (P07947 whole entry): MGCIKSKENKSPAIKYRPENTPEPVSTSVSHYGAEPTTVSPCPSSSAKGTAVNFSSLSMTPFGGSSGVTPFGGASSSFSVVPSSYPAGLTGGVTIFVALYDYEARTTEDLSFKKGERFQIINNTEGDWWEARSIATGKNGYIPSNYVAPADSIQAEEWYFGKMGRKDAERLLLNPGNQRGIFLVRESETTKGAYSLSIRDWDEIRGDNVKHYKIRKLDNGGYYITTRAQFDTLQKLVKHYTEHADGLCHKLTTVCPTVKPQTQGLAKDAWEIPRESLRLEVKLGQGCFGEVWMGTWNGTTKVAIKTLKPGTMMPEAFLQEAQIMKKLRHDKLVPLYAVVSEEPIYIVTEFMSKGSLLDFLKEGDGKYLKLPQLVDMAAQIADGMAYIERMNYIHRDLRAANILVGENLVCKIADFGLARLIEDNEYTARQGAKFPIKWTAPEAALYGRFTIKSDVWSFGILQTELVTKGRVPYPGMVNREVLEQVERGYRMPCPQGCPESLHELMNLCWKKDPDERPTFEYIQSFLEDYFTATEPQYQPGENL
T11 sequence (P07949 29-1114 M918T): as the sequence (P07949 29-1114 Y791F) above, with F763Y, M890T counted along it
T10 sequence (P07949 29-1114 G691S): as the sequence (P07949 29-1114 Y791F) above, with G663S, F763Y counted along it
T4 sequence (P10721 26-976 V654A): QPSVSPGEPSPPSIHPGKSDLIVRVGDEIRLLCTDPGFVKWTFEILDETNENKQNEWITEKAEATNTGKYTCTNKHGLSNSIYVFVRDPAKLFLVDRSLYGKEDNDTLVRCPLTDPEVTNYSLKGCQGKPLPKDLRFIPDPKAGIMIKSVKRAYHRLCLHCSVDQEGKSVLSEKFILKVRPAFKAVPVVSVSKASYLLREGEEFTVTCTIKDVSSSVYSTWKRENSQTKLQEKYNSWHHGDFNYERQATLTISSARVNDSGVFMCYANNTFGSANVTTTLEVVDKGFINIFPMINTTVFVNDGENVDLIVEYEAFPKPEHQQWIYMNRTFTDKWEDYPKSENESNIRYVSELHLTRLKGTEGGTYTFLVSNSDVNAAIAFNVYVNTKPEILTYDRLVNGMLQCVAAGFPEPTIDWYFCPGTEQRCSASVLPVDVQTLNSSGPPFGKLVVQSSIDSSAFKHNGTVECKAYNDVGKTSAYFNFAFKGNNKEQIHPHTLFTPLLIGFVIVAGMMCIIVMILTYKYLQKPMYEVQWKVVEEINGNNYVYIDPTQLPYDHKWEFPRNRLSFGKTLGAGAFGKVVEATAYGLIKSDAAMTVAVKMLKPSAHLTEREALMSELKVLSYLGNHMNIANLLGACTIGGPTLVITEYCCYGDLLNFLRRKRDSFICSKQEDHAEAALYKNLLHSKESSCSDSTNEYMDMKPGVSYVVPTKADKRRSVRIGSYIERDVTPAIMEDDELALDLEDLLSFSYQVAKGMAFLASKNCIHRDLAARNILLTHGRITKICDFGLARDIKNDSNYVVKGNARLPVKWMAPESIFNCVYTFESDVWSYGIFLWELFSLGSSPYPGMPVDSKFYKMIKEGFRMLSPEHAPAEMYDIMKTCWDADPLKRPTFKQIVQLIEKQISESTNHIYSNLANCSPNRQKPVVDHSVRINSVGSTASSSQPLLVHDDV
T1 sequence (P35916 25-1363): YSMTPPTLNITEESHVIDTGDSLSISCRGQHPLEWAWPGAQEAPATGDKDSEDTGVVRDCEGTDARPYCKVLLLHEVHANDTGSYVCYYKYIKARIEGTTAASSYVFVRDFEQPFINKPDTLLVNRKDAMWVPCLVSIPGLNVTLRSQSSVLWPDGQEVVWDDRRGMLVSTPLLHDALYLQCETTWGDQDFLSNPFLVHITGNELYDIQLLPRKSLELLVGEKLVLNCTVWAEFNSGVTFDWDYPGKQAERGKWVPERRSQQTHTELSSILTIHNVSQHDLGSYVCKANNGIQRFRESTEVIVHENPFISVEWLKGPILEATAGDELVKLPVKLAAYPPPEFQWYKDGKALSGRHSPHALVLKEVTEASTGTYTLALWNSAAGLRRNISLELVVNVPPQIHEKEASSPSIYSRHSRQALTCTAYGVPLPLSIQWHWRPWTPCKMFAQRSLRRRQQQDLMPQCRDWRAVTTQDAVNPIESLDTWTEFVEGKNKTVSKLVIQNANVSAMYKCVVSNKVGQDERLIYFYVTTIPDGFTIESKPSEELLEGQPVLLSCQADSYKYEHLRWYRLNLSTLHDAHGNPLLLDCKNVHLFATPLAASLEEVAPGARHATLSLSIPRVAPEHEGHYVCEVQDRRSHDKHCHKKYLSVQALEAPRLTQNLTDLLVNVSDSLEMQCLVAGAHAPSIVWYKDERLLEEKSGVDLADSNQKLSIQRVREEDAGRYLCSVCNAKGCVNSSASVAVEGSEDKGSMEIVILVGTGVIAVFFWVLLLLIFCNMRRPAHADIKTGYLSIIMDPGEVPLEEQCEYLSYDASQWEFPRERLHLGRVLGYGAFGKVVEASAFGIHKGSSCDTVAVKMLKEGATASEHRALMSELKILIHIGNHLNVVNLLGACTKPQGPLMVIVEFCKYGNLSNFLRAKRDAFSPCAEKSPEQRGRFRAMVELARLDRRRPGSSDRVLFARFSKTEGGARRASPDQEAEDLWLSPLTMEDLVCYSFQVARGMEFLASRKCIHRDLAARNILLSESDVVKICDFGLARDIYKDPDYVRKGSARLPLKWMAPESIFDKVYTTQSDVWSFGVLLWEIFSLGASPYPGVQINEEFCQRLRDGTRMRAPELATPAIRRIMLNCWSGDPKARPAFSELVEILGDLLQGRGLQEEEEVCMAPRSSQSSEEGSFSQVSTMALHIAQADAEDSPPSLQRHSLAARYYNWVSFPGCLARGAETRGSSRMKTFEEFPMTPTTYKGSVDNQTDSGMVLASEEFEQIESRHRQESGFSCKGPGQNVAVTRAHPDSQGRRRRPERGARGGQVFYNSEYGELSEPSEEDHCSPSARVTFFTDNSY
T5 sequence (Q13163 whole entry): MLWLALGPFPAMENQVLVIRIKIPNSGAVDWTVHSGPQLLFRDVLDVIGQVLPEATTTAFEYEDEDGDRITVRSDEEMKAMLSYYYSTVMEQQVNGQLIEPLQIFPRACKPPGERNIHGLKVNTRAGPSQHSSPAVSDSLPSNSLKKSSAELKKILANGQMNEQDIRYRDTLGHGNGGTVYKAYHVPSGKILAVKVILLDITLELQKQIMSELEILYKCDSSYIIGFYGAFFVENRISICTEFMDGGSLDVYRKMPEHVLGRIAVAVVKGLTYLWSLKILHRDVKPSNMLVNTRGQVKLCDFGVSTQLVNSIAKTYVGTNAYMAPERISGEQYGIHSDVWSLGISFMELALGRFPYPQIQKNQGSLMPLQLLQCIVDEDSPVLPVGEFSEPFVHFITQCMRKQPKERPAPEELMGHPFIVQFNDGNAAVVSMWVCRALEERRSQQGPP
T3 sequence (P10721 26-976 D816E): as the sequence (P10721 26-976 V654A) above, with A629V, D791E counted along it

**Q.** Which results are given for O=C(c1c(F)ccc(NS(=O)(=O)CCCO)c1F)c1c[nH]c2ncc(-c3ccc(Cl)cc3)cc12 [200-17, N-[3-[5-(4-chlorophenyl)-1H-pyrrolo[2,3-b]pyridine-3-carbonyl]-2,4-difluorophenyl]-3-hydroxypropane-1-sulfonamide]?
**A.** inhibition at 1 µM (FLT4): > 50%; inhibition at 0.01 µM (FYN(isoform b); [1]): < 30%; inhibition at 0.1 µM (FYN(isoform b); inhibitor concentration 0.1 μM): < 50%; inhibition at 1 µM (FYN(isoform b); inhibitor concentration 1 μM): > 50%; inhibition at 1 µM (KIT(D816E)): > 50%; inhibition at 1 µM (KIT(V654A)): > 50%; inhibition at 1 µM (MAP2K5): > 50%; inhibition at 0.01 µM (MST1; [1]): < 30%; inhibition at 0.1 µM (MST1; inhibitor concentration 0.1 μM): > 50%; inhibition at 1 µM (MST1; inhibitor concentration 1 μM): > 50%; inhibition at 0.01 µM (MST2; [1]): < 30%; inhibition at 0.1 µM (MST2; inhibitor concentration 0.1 μM): < 50%; inhibition at 1 µM (MST2; inhibitor concentration 1 μM): > 50%; inhibition at 1 µM (MST3): < 50%; inhibition at 1 µM (PKD1): < 50%; inhibition at 0.01 µM (RET(G691S); [1]): < 30%; inhibition at 0.1 µM (RET(G691S); inhibitor concentration 0.1 μM): < 50%; inhibition at 1 µM (RET(G691S); inhibitor concentration 1 μM): > 50%; inhibition at 0.01 µM (RET(M918T); [1]): < 30%; inhibition at 0.1 µM (RET(M918T); inhibitor concentration 0.1 μM): < 50%; inhibition at 1 µM (RET(M918T); inhibitor concentration 1 μM): > 50%; inhibition at 0.01 µM (RET(Y791F); [1]): < 30%; inhibition at 0.1 µM (RET(Y791F); inhibitor concentration 0.1 μM): < 50%; inhibition at 1 µM (RET(Y791F); inhibitor concentration 1 μM): > 50%; inhibition at 1 µM (ROCK1): < 50%; inhibition at 0.01 µM (YES; [1]): < 30%; inhibition at 0.1 µM (YES; inhibitor concentration 0.1 μM): > 50%; inhibition at 1 µM (YES; inhibitor concentration 1 μM): > 50%; inhibition at 1 µM (p38β): > 50%; inhibition at 1 µM (skMLCK): > 50%
